Read-outs that look alike come from different tables or passages of the source.
Experiments:
sebaceous glands = assay: Topical application of SCD-1 inhibitory compounds to NMRI mice: reduction in number and size of sebaceous glands; format: in vivo; settings: Mus musculus, 120 h, twice daily, treatment time 5 days; for inhibition in vivo at 0.3 %: concentration 0.3%; for inhibition in vivo at 1 %: concentration 1%
Protocol: Topical application of SCD-1 inhibitory compounds to NMRI mice: reduction in number and size of sebaceous glands.
Experimental protocol: Crl:NMRI male mice (24-26 g) are shaved (2×2 cm^2 minimum) 2-3 days before the first application of molecules under test. To prevent potential oral intake of the molecules, the animals are accommodated individually.
The molecules are solubilised in the ethanol/propylene glycol (30/70, v/v) vehicle are a maximum concentration of 1%. 50 μl of each preparation (molecule under test, or vehicle) are applied twice daily for 5 consecutive days on the 2 cm^2 shaved area, with the cone of a pipette with a number of to-and-fro movements. At least 6 hours after the final application, the mice are euthanised, the skin samples are taken and fixed immediately to produce paraffin sections; a histomorphometric analysis after Haematoxylin/Eosin staining is carried out.
For each animal, at least 3 sections approximately 10 mm in length are read blind by 3 people, and the efficacy of the molecules on sebaceous gland atrophy is assessed quantitatively (number) and qualitatively (relative score, size). The duration of action, the reversibility of the effect are verified in the same way by modifying the application sequences.

HCT-116 tumour cells = assay: Cytotoxic / anti-proliferation activity on human colon cancer cell line HCT-116 (ATP-lite); format: cell-based; settings: 72 hours
Protocol: Cytotoxic activities with respect to human colon cancer cell lines (HCT-116):
HCT-116 tumour cells are inoculated in a 96-well plate in RPMI 1640 medium to which 5% foetal calf serum is added (100 μl/well, respectively at 1.5 10^4 cells/ml). After 24 hours of incubation at 37° C. in an incubator at 5% CO2, 11 μl of medium containing the compound under test at a concentration 10 times greater than the final concentration are added. The plates are incubated for a further 72 hours. Cell survival is evaluated by measuring the luminescence after releasing ATP in the medium using the cell lysis, luciferase and luciferin solutions contained in the ATP-lite-M™ kit as recommended by the manufacturer (Packard, Rungis, France). Each experimental condition was replicated at least three times independently with one well reading in sextuplet per dose interval.

Human SCD-1 = Human SCD-1 (Homo sapiens (Human), UniProt O00767); assay: Human SCD-1 enzyme activity using HepG2 cell microsomes (conversion of stearic acid to oleic acid); format: biochemical; settings: 20 minutes at 37° C., relative to 0.1% DMSO vehicle, read-out: HSCD-1 (HEPG2) IC50
Protocol: Human SCD-1 enzyme activity using HepG2 cell microsomes after treating with inhibitory compounds (% inhibition):
Human hepatocarcinoma HepG2 cells (ATCC, HB-8065) are cultured to confluence and trypsinised. The cell pellet is taken up with 10 mM Tris (pH 7.4) sucrose (250 mM) DTT (1 mM) buffer and the cells are lysed by sonication. The microsomes are obtained after centrifugation at 10,000 g for 20 minutes at 4° C. followed by centrifugation of the supernatant at 100,000 g for 60 minutes at 4° C. The pellet is taken up with 10 mM Tris (pH 7.4) sucrose (250 mM) buffer at 4° C. and the microsomal proteins are assayed and stored at −196° C. (liquid nitrogen).
The enzyme reaction measures the conversion of stearic acid (C18:0 fatty acid) to oleic acid (C18:1 fatty acid) by SCD-1. The enzyme reaction is started by adding 125 μg of HepG2 cell microsomal fraction to tubes (total reaction volume of 500 μl) containing 62 μM of stearic acid (45 μM of stearic acid 17 μM of [^14C] stearic acid) in a 100 mM phosphate buffer (pH 7.16) with 7.2 mM of ATP, 0.54 mM of CoA, 6 mM of MgCl2, 0.8 mM of NADH and the inhibitory compound or the vehicle (0.1% DMSO). The tubes are incubated for 20 minutes at 37° C. and the enzyme reaction is stopped by adding KOH (12%) and saponification for 30 minutes at 80° C. After acidification (3N HCl), the fatty acids are extracted twice with ethyl ether, evaporated in nitrogen before being taken up with methanol/dichloromethane (3:1). The reaction product (C18:1) is separated from the reaction substrate (C18:0) by HPLC (Perkin Elmer, C18 reverse phase column) coupled with an online radioactivity detector (FlowOne). The enzyme activity is calculated in picomoles of stearic acid converted into oleic acid per minute and per mg of protein. For each inhibitory compound, an IC50 is determined in relation to the reference enzyme activity (0.1% DMSO vehicle). Sterculic acid is the reference inhibitory compound (Gomez F. E., Bauman D. E., Ntambi J. M., Fox B. G. Effects of sterculic acid on stearoyl-CoA desaturase in differentiating 3T3-L1 adipocytes. Biochem Biophys Res Commun. 300 316-326 (2003).

[1] = HCT-116, HTC116 human tumour line, read-out: EC50 (anti-proliferation activity)
[2] = Homo sapiens, HCT-116 tumour line cells, read-out: 50% inhibitory concentration (EC50), concentration inhibiting cell proliferation by 50%

Sequence of Human SCD-1 (O00767 whole entry): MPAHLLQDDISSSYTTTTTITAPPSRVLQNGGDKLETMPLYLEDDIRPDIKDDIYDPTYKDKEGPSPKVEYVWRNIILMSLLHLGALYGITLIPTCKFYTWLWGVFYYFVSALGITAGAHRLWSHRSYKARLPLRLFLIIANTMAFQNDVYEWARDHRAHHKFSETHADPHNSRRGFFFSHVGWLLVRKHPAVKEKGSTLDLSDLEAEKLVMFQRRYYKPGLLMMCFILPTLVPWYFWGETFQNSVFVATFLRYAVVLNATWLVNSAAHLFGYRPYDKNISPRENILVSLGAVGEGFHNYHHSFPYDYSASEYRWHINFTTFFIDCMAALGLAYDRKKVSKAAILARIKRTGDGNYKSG

Row | SMILES | IC50 (Human SCD-1) | further results
1 | CC1CN(c2nccnn2)CCC1Oc1cc(C(F)(F)F)ccc1Cl (stereo not drawn) [Example 37, 3-[4-(2-Chloro-5-trifluoromethyl-phenoxy)-3-methyl-piperidin-1-yl]-[1,2,4]triazine] | 100 to 1000 nM | –
2 | FC(F)(F)c1ccc(Cl)c(OC2CCN(c3nccnn3)C2)c1 (stereo not drawn) [Example 42, 3-[3-(2-Chloro-5-trifluoromethyl-phenoxy)-pyrrolidin-1-yl]-[1,2,4]triazine] | 300 to 1000 nM | –
3 | Cn1cc(Cl)nc(N2CCC(Oc3ccccc3Cl)CC2)c1=O [Example 6, 5-Chloro-3-[4-(2-chloro-phenoxy)-piperidin-1-yl]-1-methyl-1H-pyrazin-2-one] | 100 to 1000 nM | inhibition in vivo at 0.3 % (sebaceous glands): 79%
4 | Clc1ccccc1OC1CCN(c2nccnn2)CC1 [Example 13, 3-[4-(2-Chloro-phenoxy)-piperidin-1-yl]-[1,2,4]triazine] | 100 to 1000 nM | –
5 | O=[N+]([O-])c1ccccc1OC1CCN(c2nccnn2)CC1 [Example 35, 3-[4-(2-Nitro-phenoxy)-piperidin-1-yl]-[1,2,4]triazine] | 100 to 1000 nM | –
6 | CC1CN(c2nccnn2)CCC1Oc1cc(Cl)ccc1Cl (stereo not drawn) [Example 38, 3-[4-(2,5-Dichloro-phenoxy)-3-methyl-piperidin-1-yl]-[1,2,4]triazine] | 300 to 1000 nM | –
7 | Cc1cnnc(N2CCC(Oc3ccccc3Cl)CC2)n1 [Example 28, 3-[4-(2-Chloro-phenoxy)-piperidin-1-yl]-5-methyl-[1,2,4]triazine] | 300 to 1000 nM | –
8 | Cc1ccccc1OC1CCN(c2nc(Cl)cn(C)c2=O)CC1 [Example 9, 5-Chloro-1-methyl-3-(4-o-tolyloxy-piperidin-1-yl)-1H-pyrazin-2-one] | 100 to 1000 nM | inhibition in vivo at 0.3 % (sebaceous glands): 43%
9 | Cc1nnc(N2CCC(Oc3cc(C(F)(F)F)ccc3Cl)CC2)nc1C [Example 19, 3-[4-(2-Chloro-5-trifluoromethyl-phenoxy)-piperidin-1-yl]-5,6-dimethyl-[1,2,4]triazine] | 100 to 1000 nM | –
10 | FC(F)(F)c1ccccc1OC1CCN(c2nccnn2)CC1 [Example 14, 3-[4-(2-Trifluoromethyl-phenoxy)-piperidin-1-yl]-[1,2,4]triazine] | 100 to 1000 nM | –

The next lines start with results.

Row | IC50 (Human SCD-1) | SMILES | further results
11 | 10 to 30 nM | Cn1cc(Cl)nc(N2CCC(Oc3cc(F)ccc3Cl)CC2)c1=O [Example 12, 5-Chloro-3-[4-(2-chloro-5-fluoro-phenoxy)-piperidin-1-yl]-1-methyl-1H-pyrazin-2-one] | inhibition in vivo at 0.3 % (sebaceous glands): 94%; EC50 (HCT-116 tumour cells; [1]): 60 nM; EC50 (HCT-116 tumour cells; [2]): 60 nM
12 | 300 nM | Cc1cnnc(N2CCC(Oc3cc(C(F)(F)F)ccc3Cl)CC2)n1 [Example 27, 3-[4-(2-Chloro-5-trifluoromethyl-phenoxy)-piperidin-1-yl]-5-methyl-[1,2,4]triazine] | –
13 | 30 to 100 nM | O=[N+]([O-])c1ccc(Cl)c(OC2CCN(c3nccnn3)CC2)c1 [Example 32, 3-[4-(2-Chloro-5-nitro-phenoxy)-piperidin-1-yl]-[1,2,4]triazine] | –
14 | 100 nM | Cc1cnc(N2CCC(Oc3cc(F)ccc3Cl)CC2)nn1 [Example 30, 3-[4-(2-Chloro-5-fluoro-phenoxy)-piperidin-1-yl]-6-methyl-[1,2,4]triazine] | –
15 | 100 to 300 nM | Cn1cc(Cl)nc(N2CCC(Oc3cc(C(F)(F)F)ccc3Cl)CC2)c1=O [Example 8] | inhibition in vivo at 0.3 % (sebaceous glands): 95%
16 | 300 nM | CCCCCCCCC1=C(CCCCCCCC(=O)O)C1 [Sterculic acid, reference compound] | –
17 | 100 to 300 nM | Cn1cc(Cl)nc(N2CCC(Oc3ccccc3C(F)(F)F)CC2)c1=O [Example 7, 5-Chloro-1-methyl-3-[4-(2-trifluoromethyl-phenoxy)-piperidin-1-yl]-1H-pyrazin-2-one] | inhibition in vivo at 0.3 % (sebaceous glands): 75%
18 | 10 to 100 nM | Fc1cc(Br)c(OC2CCN(c3nccnn3)CC2)cc1F [Example 33, 3-[4-(2-Bromo-4,5-difluoro-phenoxy)-piperidin-1-yl]-[1,2,4]triazine] | –
19 | 100 nM | FC(F)(F)c1ccc(Cl)c(OC2CCN(c3nccnn3)CC2)c1 [Example 17, 3-[4-(2-Chloro-5-trifluoromethyl-phenoxy)-piperidin-1-yl]-[1,2,4]triazine] | inhibition in vivo at 1 % (sebaceous glands): 97%; EC50 (HCT-116 tumour cells; [1]): 230 nM; EC50 (HCT-116 tumour cells; [2]): 230 nM
20 | 100 to 300 nM | Cn1nccc(N2CCC(Oc3cc(C(F)(F)F)ccc3Cl)CC2)c1=O [Example 40, 4-[4-(2-Chloro-5-trifluoromethyl-phenoxy)-piperidin-1-yl]-2-methyl-2H-pyridazin-3-one] | inhibition in vivo at 0.1 % (sebaceous glands; concentration 0.1%): 36%
21 | 100 nM | Cc1cnnc(N2CCC(Oc3cc(F)ccc3Cl)CC2)n1 [Example 25, 3-[4-(2-Chloro-5-fluoro-phenoxy)-piperidin-1-yl]-5-methyl-[1,2,4]triazine] | –
22 | 30 nM | FC(F)(F)c1ccccc1NC1CCN(c2nccnn2)CC1 [Example 36] | –
23 | 30 nM | Fc1ccc(Cl)c(OC2CCN(c3nccnn3)CC2)c1 [Example 18, 3-[4-(2-Chloro-5-fluoro-phenoxy)-piperidin-1-yl]-[1,2,4]triazine] | –
24 | 100 nM | Cn1ccnc(N2CCC(Oc3ccccc3C(F)(F)F)CC2)c1=O [Example 11, 1-Methyl-3-[4-(2-trifluoromethyl-phenoxy)-piperidin-1-yl]-1H-pyrazin-2-one] | inhibition in vivo at 1 % (sebaceous glands): 45%

Source: US8962837B2, “Nitrogen heterocycle derivatives, preparation thereof and application thereof in human therapeutics” (Pierre Fabre Medicament, priority 2010, dated 2015)
